# Laboratory results from ChEMBL document CHEMBL1795295, “Synthesis and antimycobacterial activity of highly functionalized tetrahydro-4(1H)-pyridinones” (2011).
# System: Mycobacterium tuberculosis
# Test: Antimycobacterial activity against Mycobacterium tuberculosis H37Rv by agar dilution method
# Format: functional
row,SMILES,MIC [µM]
1,N#CN1C(c2ccc(F)cc2)CC(=O)C(c2ccccc2)C1c1ccc(F)cc1 (stereo not drawn),16.1
2,CC[C@@H](CO)NCCN[C@@H](CC)CO [ETHAMBUTOL],7.6
3,NC(=O)c1cnccn1 [PYRAZINAMIDE],50.8
4,COc1ccc(C2CC(=O)C(c3ccccc3)C(c3ccc(OC)cc3)N2C#N)cc1 (stereo not drawn),30.3
5,O=NN1C(c2ccc(Cl)cc2)CC(=O)C(c2ccccc2)C1c1ccc(Cl)cc1 (stereo not drawn),7.35
6,O=NN1C(c2ccc(Cl)cc2)C(c2ccccc2)C(=O)C(c2ccccc2)C1c1ccc(Cl)cc1 (stereo not drawn),3.11
7,O=NN1C(c2ccc(F)cc2)CC(=O)C(c2ccccc2)C1c1ccc(F)cc1 (stereo not drawn),3.97
8,O=C1[C@H](c2ccccc2)[C@@H](c2ccc(F)cc2)N[C@@H](c2ccc(F)cc2)[C@@H]1c1ccccc1,7.12
9,O=C1[C@H](c2ccccc2)[C@@H](c2ccccc2)N[C@@H](c2ccccc2)[C@@H]1c1ccccc1,62
10,O=C1C[C@H](c2ccccc2Cl)N[C@H](c2ccccc2Cl)[C@H]1c1ccccc1,31.5
11,O=C1C[C@H](c2ccc(Cl)cc2)N[C@H](c2ccc(Cl)cc2)[C@H]1c1ccccc1,31.5
12,O=NN1C(c2ccccc2)CC(=O)C(c2ccccc2)C1c1ccccc1 (stereo not drawn),17.5
13,Cc1ccc(C2C(c3ccccc3)C(=O)C(c3ccccc3)C(c3ccc(C)cc3)N2N=O)cc1 (stereo not drawn),6.79
14,NNC(=O)c1ccncc1 [ISONIAZID],0.4
15,O=C1[C@H](c2ccccc2)[C@@H](c2ccccc2Cl)N[C@@H](c2ccccc2Cl)[C@@H]1c1ccccc1,13.2
16,Cc1ccc(C2CC(=O)C(c3ccccc3)C(c3ccc(C)cc3)N2C#N)cc1 (stereo not drawn),65.7
17,COc1ccc([C@H]2N[C@@H](c3ccc(OC)cc3)[C@H](c3ccccc3)C(=O)[C@@H]2c2ccccc2)cc1,27
18,O=C1[C@H](c2ccccc2)[C@@H](c2ccc(Cl)cc2)N[C@@H](c2ccc(Cl)cc2)[C@@H]1c1ccccc1,13.2
19,Cc1ccccc1C1C(c2ccccc2)C(=O)C(c2ccccc2)C(c2ccccc2C)N1C#N (stereo not drawn),27.4

row,SMILES,MIC [µM]
1,N#CN1C(c2ccc(Cl)cc2)C(c2ccccc2)C(=O)C(c2ccccc2)C1c1ccc(Cl)cc1 (stereo not drawn),25.1
2,N#CN1C(c2ccccc2Cl)C(c2ccccc2)C(=O)C(c2ccccc2)C1c1ccccc1Cl (stereo not drawn),12.6
3,Cc1ccc(C2CC(=O)C(c3ccccc3)C(c3ccc(C)cc3)N2N=O)cc1 (stereo not drawn),8.14
4,COc1ccccc1C1C(c2ccccc2)C(=O)C(c2ccccc2)C(c2ccccc2OC)N1N=O (stereo not drawn),6.35
5,Cc1ccccc1[C@H]1N[C@@H](c2ccccc2C)[C@H](c2ccccc2)C(=O)[C@@H]1c1ccccc1,29
6,Cc1ccccc1[C@H]1N[C@@H](c2ccccc2C)CC(=O)[C@@H]1c1ccccc1,70.3
7,N#CN1C(c2ccccc2)C(c2ccccc2)C(=O)C(c2ccccc2)C1c1ccccc1 (stereo not drawn),58.3
8,O=NN1C(c2ccccc2Cl)C(c2ccccc2)C(=O)C(c2ccccc2)C1c1ccccc1Cl (stereo not drawn),3.11
9,COc1ccccc1[C@H]1N[C@@H](c2ccccc2OC)[C@H](c2ccccc2)C(=O)[C@@H]1c1ccccc1,27
10,O=C1C[C@H](c2ccc(F)cc2)N[C@H](c2ccc(F)cc2)[C@H]1c1ccccc1,34.4
11,Cc1ccc([C@H]2N[C@@H](c3ccc(C)cc3)[C@H](c3ccccc3)C(=O)[C@@H]2c2ccccc2)cc1,29
12,Cc1ccccc1C1C(c2ccccc2)C(=O)C(c2ccccc2)C(c2ccccc2C)N1N=O (stereo not drawn),6.79
13,COc1ccc(C2C(c3ccccc3)C(=O)C(c3ccccc3)C(c3ccc(OC)cc3)N2N=O)cc1 (stereo not drawn),12.7
14,Cc1ccccc1C1CC(=O)C(c2ccccc2)C(c2ccccc2C)N1N=O (stereo not drawn),8.14
15,N#CN1C(c2ccccc2)CC(=O)C(c2ccccc2)C1c1ccccc1 (stereo not drawn),70.9
16,N#CN1C(c2ccc(Cl)cc2)CC(=O)C(c2ccccc2)C1c1ccc(Cl)cc1 (stereo not drawn),29.7
17,Cc1ccc([C@H]2N[C@@H](c3ccc(C)cc3)CC(=O)[C@@H]2c2ccccc2)cc1,70.3
18,O=NN1C(c2ccccc2)C(c2ccccc2)C(=O)C(c2ccccc2)C1c1ccccc1 (stereo not drawn),14.4
19,COc1ccccc1[C@H]1N[C@@H](c2ccccc2OC)CC(=O)[C@@H]1c1ccccc1,64.5
